In patent publication US8354441B2, “Oxazoline derivatives” (Hoffmann-La Roche Inc., priority 2009, dated 2013) one finds Ki data, which are given here for 23 compounds.

For one experiment, the target named is T1, mouse TAAR1 (Mus musculus, UniProt Q923Y8).
T1 construct: expressed in transfected cells; host or cells: HEK293 (ATCC # CRL-1573), stably transfected with pIRESneo2 expression plasmid
Description: TAAR1 radioligand binding with [3H]-rac-2-(1,2,3,4-tetrahydro-1-naphthyl)-2-imidazoline, membranes of stably transfected HEK293 cells. To be noted: first value of the cell, read-out: Ki (μM) mouse/rat: mouse. The protocol: (§1) For the construction of expression plasmids the coding sequences of human, rat and mouse TAAR 1 were amplified from genomic DNA essentially as described by Lindemann et al.. The Expand High Fidelity PCR System (Roche Diagnostics) was used with 1.5 mM Mg^2+ and purified PCR products were cloned into pCR2.1-TOPO cloning vector (Invitrogen) following the instructions of the manufacturer. PCR products were subcloned into the pIRESneo2 vector (BD Clontech, Palo Alto, Calif.), and expression vectors were sequence verified before introduction in cell lines.
(§2) HEK293 cells (ATCC # CRL-1573) were cultured essentially as described by Lindemann et al. (2005). For the generation of stably transfected cell lines HEK293 cells were transfected with the pIRESneo2 expression plasmids containing the TAAR coding sequences (described above) with Lipofectamine 2000 (Invitrogen) according to the instructions of the manufacturer, and 24 hrs post transfection the culture medium was supplemented with 1 mg/ml G418 (Sigma, Buchs, Switzerland). After a culture period of about 10 d clones were isolated, expanded and tested for responsiveness to trace amines (all compounds purchased from Sigma) with the cAMP Biotrak Enzyme immunoassay (EIA) System (Amersham) following the non-acetylation EIA procedure provided by the manufacturer.
(§3) Cells at confluence were rinsed with ice-cold phosphate buffered saline without Ca^2+ and Mg^2+ containing 10 mM EDTA and pelleted by centrifugation at 1000 rpm for 5 min at 4° C. The pellet was then washed twice with ice-cold phosphate buffered saline and the cell pellet was frozen immediately by immersion in liquid nitrogen and stored until use at −80° C. The cell pellet was then suspended in 20 ml HEPES-NaOH (20 mM), pH 7.4 containing 10 mM EDTA, and homogenized with a Polytron (PT 3000, Kinematica) at 10,000 rpm for 10 s. The homogenate was centrifuged at 48,000×g for 30 min at 4° C. and the pellet resuspended in 20 ml HEPES-NaOH (20 mM), pH 7.4 containing 0.1 mM EDTA (buffer A), and homogenized with a Polytron at 10,000 rpm for 10 s. The homogenate was then centrifuged at 48,000×g for 30 min at 4° C. and the pellet resuspended in 20 ml buffer A, and homogenized with a Polytron at 10,000 rpm for 10 s. Protein concentration was determined by the method of Pierce (Rockford, Ill.). The homogenate was then centrifuged at 48,000×g for 10 min at 4° C., resuspended in HEPES-NaOH (20 mM), pH 7.0 including MgCl2 (10 mM) and […] homogenized with a Polytron at 10,000 rpm for 10 s.
(§4) The binding assay was performed at 4° C. in a final volume of 1 ml, and with an incubation time of 30 min. The radioligand [^3H]-rac-2-(1,2,3,4-tetrahydro-1-naphthyl)-2-imidazoline was used at a concentration equal to the calculated Kd value of 60 nM to give a bound at around 0.1% of the total added radioligand concentration, and a specific binding which represented approximately 70-80% of the total binding. Non-specific binding was defined as the amount of [^3H]-rac-2-(1,2,3,4-tetrahydro-1-naphthyl)-2-imidazoline bound in the presence of the appropriate unlabelled ligand (10 μM). Competing ligands were tested in a wide range of concentrations (10 pM-30 μM). […] Each experiment was performed in duplicate. All incubations were terminated by rapid filtration through UniFilter-96 plates (Packard Instrument Company) and glass filter GF/C, pre-soaked for at least 2 h in polyethylenimine 0.3%, and using a Filtermate 96 Cell Harvester (Packard Instrument Company). The tubes and filters were then washed 3 times with 1 ml aliquots of cold buffer B. Filters were not dried and soaked in Ultima gold (45 μl/well, Packard Instrument Company) and bound radioactivity was counted by a TopCount Microplate Scintillation Counter (Packard Instrument Company).

For another experiment, the target named is T2, rat TAAR1 (Rattus norvegicus, UniProt Q923Y9).
T2 construct: expressed in transfected cells; host or cells: HEK293 (ATCC # CRL-1573), stably transfected with pIRESneo2 expression plasmid
Described as above. To be noted: second value of the cell, read-out: Ki (μM) mouse/rat: rat. On the procedure: as §1, §2, §3, §4

T2 sequence (Q923Y9 whole entry): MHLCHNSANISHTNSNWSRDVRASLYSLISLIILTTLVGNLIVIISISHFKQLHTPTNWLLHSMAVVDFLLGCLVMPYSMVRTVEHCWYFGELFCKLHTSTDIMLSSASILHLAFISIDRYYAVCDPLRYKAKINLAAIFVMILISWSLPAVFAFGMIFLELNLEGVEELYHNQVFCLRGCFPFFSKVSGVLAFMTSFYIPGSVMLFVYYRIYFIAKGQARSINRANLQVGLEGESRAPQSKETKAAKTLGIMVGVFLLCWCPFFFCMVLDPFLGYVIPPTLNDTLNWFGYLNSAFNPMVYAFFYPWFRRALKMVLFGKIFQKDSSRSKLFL
T1 sequence (Q923Y8 whole entry): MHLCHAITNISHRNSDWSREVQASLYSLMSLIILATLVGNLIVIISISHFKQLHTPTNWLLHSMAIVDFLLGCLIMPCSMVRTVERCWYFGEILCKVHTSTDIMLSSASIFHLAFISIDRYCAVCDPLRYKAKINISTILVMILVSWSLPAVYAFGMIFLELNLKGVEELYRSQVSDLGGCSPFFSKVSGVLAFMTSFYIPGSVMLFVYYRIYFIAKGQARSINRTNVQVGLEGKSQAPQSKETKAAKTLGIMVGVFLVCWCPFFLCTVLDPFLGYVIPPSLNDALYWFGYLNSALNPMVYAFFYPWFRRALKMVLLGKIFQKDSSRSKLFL

For `NC1=N[C@@H](CCc2ccc(NC(=O)C3(C(F)(F)F)CC3)cc2)CO1` [Example 52, 1-Trifluoromethyl-cyclopropanecarboxylic acid {4-[2-((S)-2-amino-4,5-dihydro-oxazol-4-yl)-ethyl]-phenyl}-amide], the Ki at mouse TAAR1 was 0.0073 µM; at rat TAAR1 it was 0.006 µM.

With `NC1=N[C@@H](CCc2ccc(NC(=O)C3(c4ccc(Cl)cc4)CC3)cc2)CO1` [Example 53, 1-(4-Chloro-phenyl)-cyclopropanecarboxylic acid {4-[2-((S)-2-amino-4,5-dihydro-oxazol-4-yl)-ethyl]-phenyl}-amide], the Ki at mouse TAAR1 came out at 0.0009 µM; at rat TAAR1, 0.0016 µM.

Regarding `NC1=N[C@@H](CCc2ccc(NC(=O)c3ccc(C(F)(F)F)cn3)cc2)CO1` [Example 54, 5-Trifluoromethyl-pyridine-2-carboxylic acid {4-[2-((S)-2-amino-4,5-dihydro-oxazol-4-yl)-ethyl]-phenyl}-amide], the values for the Ki at mouse TAAR1 and on rat TAAR1 were 0.0008 µM and 0.0019 µM, respectively.

Regarding `NC1=N[C@@H](CCc2ccc(NC(=O)c3ccc(C(F)(F)F)nc3)cc2)CO1` [Example 55, N-{4-[2-((S)-2-Amino-4,5-dihydro-oxazol-4-yl)-ethyl]-phenyl}-6-trifluoromethyl-nicotinamide], the Ki at mouse TAAR1 was found to be 0.0025 µM; at rat TAAR1, 0.003 µM.

As to `NC1=N[C@@H](CCc2ccc(N3CCN(c4ccc(F)cc4)C3=O)cc2)CO1` [Example 56, 1-{4-[2-((S)-2-Amino-4,5-dihydro-oxazol-4-yl)-ethyl]-phenyl}-3-(4-fluoro-phenyl)-imidazolidin-2-one], the Ki at mouse TAAR1 stood at 0.0094 µM; on rat TAAR1 it was 0.0009 µM.

For the compound `CC(C(=O)Nc1ccc(CC[C@H]2COC(N)=N2)cc1)c1ccc(Cl)cc1` (stereo partly drawn) [Example 58, N-{4-[2-((S)-2-Amino-4,5-dihydro-oxazol-4-yl)-ethyl]-phenyl}-2-(4-chloro-phenyl)-propionamide], the Ki at mouse TAAR1 amounted to 0.0014 µM; at rat TAAR1 it was 0.0007 µM.

As to `N#Cc1ccc(C(=O)Nc2ccc(CC[C@H]3COC(N)=N3)cc2)cc1` [Example 59, N-{4-[2-((S)-2-Amino-4,5-dihydro-oxazol-4-yl)-ethyl]-phenyl}-4-cyano-benzamide], the Ki on mouse TAAR1 and at rat TAAR1 was 0.0022 µM in each case.

For `CCOc1ccc(C(=O)Nc2ccc(CC[C@H]3COC(N)=N3)cc2)cc1` [Example 60, N-{4-[2-((S)-2-Amino-4,5-dihydro-oxazol-4-yl)-ethyl]-phenyl}-4-ethoxy-benzamide], the Ki on mouse TAAR1 was determined as 0.001 µM; on rat TAAR1, 0.0006 µM.

In the case of `CCCc1ccc(C(=O)Nc2ccc(CC[C@H]3COC(N)=N3)cc2)cc1` [Example 61, N-{4-[2-((S)-2-Amino-4,5-dihydro-oxazol-4-yl)-ethyl]-phenyl}-4-propyl-benzamide], the Ki turned out to be 0.0002 µM on mouse TAAR1 and 0.0007 µM at rat TAAR1.

Turning to `C#Cc1ccc(C(=O)Nc2ccc(CC[C@H]3COC(N)=N3)cc2)cc1` [Example 62, N-{4-[2-((S)-2-Amino-4,5-dihydro-oxazol-4-yl)-ethyl]-phenyl}-4-ethynyl-benzamide], the Ki on mouse TAAR1 was 0.0003 µM; on rat TAAR1, 0.0005 µM.

With `COCc1ccc(C(=O)Nc2ccc(CC[C@H]3COC(N)=N3)cc2)cc1` [Example 63, N-{4-[2-((S)-2-Amino-4,5-dihydro-oxazol-4-yl)-ethyl]-phenyl}-4-methoxymethyl-benzamide], the Ki at mouse TAAR1 came out at 0.0026 µM; on rat TAAR1 it was 0.0013 µM.

On to `CCOc1ccc(CC(=O)Nc2ccc(CC[C@H]3COC(N)=N3)cc2)cc1` [Example 66, N-{4-[2-((S)-2-Amino-4,5-dihydro-oxazol-4-yl)-ethyl]-phenyl}-2-(4-ethoxy-phenyl)-acetamide], for which the Ki on mouse TAAR1 came out at 0.0026 µM; at rat TAAR1, 0.0017 µM.

Take `COc1ccc(CC(=O)Nc2ccc(CC[C@H]3COC(N)=N3)cc2)cc1` [Example 68, N-{4-[2-((S)-2-Amino-4,5-dihydro-oxazol-4-yl)-ethyl]-phenyl}-2-(4-methoxy-phenyl)-acetamide]: the results for the Ki on mouse TAAR1 and at rat TAAR1 were 0.0043 µM and 0.0019 µM, respectively.

With `NC1=N[C@@H](CCc2ccc(NC(=O)Cc3ccc(F)cc3)cc2)CO1` [Example 69, N-{4-[2-((S)-2-Amino-4,5-dihydro-oxazol-4-yl)-ethyl]-phenyl}-2-(4-fluoro-phenyl)-acetamide], the Ki came to 0.003 µM at mouse TAAR1 and 0.0009 µM at rat TAAR1.

Take `NC1=N[C@@H](CCc2ccc(NC(=O)Cc3ccc(Cl)cc3)cc2)CO1` [Example 70, N-{4-[2-((S)-2-Amino-4,5-dihydro-oxazol-4-yl)-ethyl]-phenyl}-2-(4-chloro-phenyl)-acetamide]: the Ki at mouse TAAR1 and on rat TAAR1 was 0.001 µM throughout.

For the compound `COc1ccc(C(=O)Nc2ccc(CC[C@H]3COC(N)=N3)cc2)cc1` [Example 71, N-{4-[2-((S)-2-Amino-4,5-dihydro-oxazol-4-yl)-ethyl]-phenyl}-4-methoxy-benzamide], the Ki is 0.0009 µM at mouse TAAR1 and 0.0005 µM on rat TAAR1.

As for `CC(C)(C(=O)Nc1ccc(CC[C@H]2COC(N)=N2)cc1)c1ccc(Cl)cc1` [Example 72, N-{4-[2-((S)-2-Amino-4,5-dihydro-oxazol-4-yl)-ethyl]-phenyl}-2-(4-chloro-phenyl)-isobutyramide], the figures for the Ki at mouse TAAR1 and on rat TAAR1 were 0.0008 µM and 0.001 µM, respectively.

As for `COC(C(=O)Nc1ccc(CC[C@H]2COC(N)=N2)cc1)c1ccc(Br)cc1` (stereo partly drawn) [Example 73, N-{4-[2-((S)-2-Amino-4,5-dihydro-oxazol-4-yl)-ethyl]-phenyl}-2-(4-bromo-phenyl)-2-methoxy-acetamide], the figures for the Ki at mouse TAAR1 and on rat TAAR1 were 0.0026 µM and 0.0049 µM, respectively.

With `CO[C@H](C(=O)Nc1ccc(CC[C@H]2COC(N)=N2)cc1)c1ccccc1` [Example 74, (S)-N-{4-[2-((S)-2-Amino-4,5-dihydro-oxazol-4-yl)-ethyl]-phenyl}-2-methoxy-2-phenyl-acetamide], the values for the Ki at mouse TAAR1 and on rat TAAR1 were 0.009 µM and 0.0073 µM, respectively.

Turning to `NC1=N[C@@H](CCc2ccc(NS(=O)(=O)c3ccc(Cl)c(Cl)c3)cc2)CO1` [Example 76, N-{4-[2-((S)-2-Amino-4,5-dihydro-oxazol-4-yl)-ethyl]-phenyl}-3,4-dichloro-benzenesulfonamide], the figures for the Ki on mouse TAAR1 and on rat TAAR1 were 0.009 µM and 0.0009 µM, respectively.

On to `COC(C(=O)Nc1ccc(CC[C@H]2COC(N)=N2)cc1)c1ccc(Cl)cc1` (stereo partly drawn) [Example 78, N-{4-[2-((S)-2-Amino-4,5-dihydro-oxazol-4-yl)-ethyl]-phenyl}-2-(4-chloro-phenyl)-2-methoxy-acetamide], for which the Ki turned out to be 0.0048 µM on mouse TAAR1 and 0.0031 µM on rat TAAR1.

For `NC1=N[C@@H](CCc2ccc(NC(=O)C3CCC(C(F)(F)F)CC3)cc2)CO1` (stereo partly drawn) [Example 79, 4-Trifluoromethyl-cyclohexanecarboxylic acid {4-[2-((S)-2-amino-4,5-dihydro-oxazol-4-yl)-ethyl]-phenyl}-amide], the Ki came to 0.0057 µM on mouse TAAR1 and 0.0051 µM on rat TAAR1.

On to `NC1=N[C@@H](CCc2ccc(NC(=O)CCc3ccccc3Cl)cc2)CO1` [Example 80, N-{4-[2-((S)-2-Amino-4,5-dihydro-oxazol-4-yl)-ethyl]-phenyl}-3-(2-chloro-phenyl)-propionamide], for which the results for the Ki at mouse TAAR1 and at rat TAAR1 were 0.0014 µM and 0.0011 µM, respectively.
